Data as given in patent EP0070133B1, “Secondary phenylethanol amines, processes for their preparation and their pharmaceutical application” (priority 1981, dated 1983).
Counter-ions that a name gives are not always drawn. Like-named read-outs stand apart in the source and are kept apart here.

How the values were obtained:
genetically obese mice = assay: Anti-obesity activity: carcass composition after 28 days of daily dosing; type: in vivo
Protocol: The compounds were administered by oral gavage in water or carboxymethyl-cellulose suspension to genetically obese mice daily for 28 days. At the end of the time the carcass composition was determined. The results obtained were as follows:-

Female CFLP mice [1] = assay: Effect on energy expenditure and food intake of mice; type: in vivo; conditions: Mus musculus, po, 21 h
Protocol: Female CFLP mice each weighing approximately 24 g, were given food and water ad lib before and during the experiment. The compounds were dissolved in water by addition of one mole of hydrochloric acid per mole of compound and these solutions were administered orally to each of 12 mice. A further 12 mice were dosed orally with water. The mice were placed in boxes through which air was drawn and the oxygen content of the air leaving the boxes was measured. […] The food intake of the mice was measured over this same period of 21 hours. The results are expressed as a percentage of the mean food intake or rate of energy expenditure of the mice dosed with water.

[2] = tested on: platelet aggregation in human whole blood; assay: Collagen-induced platelet aggregation in human whole blood in vitro; type: cell-based; conditions: Final Concentration in Whole Blood 100 μM; collagen EC50 in presence of compound divided by control EC50
Protocol: Collagen-induced platelet aggregation in human whole blood in vitro.
Collagen added to stirred citrated blood causes platelet aggregation. As the platelets aggregate, the concentration of single platelets falls. […] Inhibitors of aggregation, such as aspirin and dipyridamole, reduce the response to collagen.
Collagen (Hormon-Chemie, Munich) or 154 mM NaCl (control) was added to each aliquot of blood stirred at 1100 rpm in an aggregometer at 37° after 3 mins pre-incubation with compound or appropriate solvent. Aggregates were fixed by addition of 0.5 vol 4.5% formaldehyde or 0.05 vol phosphate-buffered glutaraldehyde. Single platelets were counted electronically. Responses, expressed as per cent fall in platelet count, were obtained to a range of collagen concentrations. The concentration producing 50% maximal effect (EC50) was estimated from log10 concentration-response curves. Dose-ratios were calculated by dividing the EC50 obtained in the presence of compound under test by the control EC50.

Rat hearts = assay: Cardiac activity: rat hearts perfused by the Langendorff procedure
Protocol: Rat hearts were perfused by the Langendorff procedure as follows:- • Hearts were dissected free within 30 seconds of death and reverse perfused via the aorta and coronary vessels with Krebs-Ringer bicarbonate solution (pH 7.4, 37°C) gassed with 95% oxygen:5% carbon dioxide at a flow rate between 8-12 cm^3/minute. Responses were observed after injection of drug dissolved in isotonic saline into the perfusion media.
Results are expressed as a percentage of the maximum response due to salbutamol.

Female CFLP mice [3] = assay: Anti-hyperglycaemic activity: subcutaneous glucose load in fasted mice, area under blood glucose curve; type: in vivo; conditions: glucose 1 g/kg sc, 2 hour period, vs water control
Protocol: Female CFLP mice, each weighing approximately 25 g, were fasted for 24 hours prior to the study. The compounds under study were administered orally as an aqueous solution to each of 6 mice. 6 mice were given water as a control. 30 minutes later a blood sample (20 µl) was obtained from the tail for the analysis of blood glucose. Immediately after taking this blood sample, glucose (1 g/kg body weight) was administered subcutaneously to each mouse. Blood samples were then obtained from each mouse at 30 minute intervals for 120 minutes.
Compounds that produced a significant (P<0.05) reduction of blood glucose, compared with control mice given water, at any time interval, were considered active. The area under the blood glucose curve over the 2 hour period after the administration of the glucose was calculated for each compound and compared with the value for control animals.

rat ear = assay: Anti-inflammatory activity: croton oil induced inflammation of the rat ear; type: in vivo; conditions: 1.35 mg/rat ear, topical in 1% croton oil in tetrahydrofuran, ear weight after 6 hours; active = significant (5% level) reduction
Protocol: The method used is based on that described by G. Tonelli eta/ (Endocrinology, 77, 625-634, 1965). An inflammation is induced in the rat ear by the application of 50 µl of a 1% solution of croton oil in tetrahydrofuran, test compounds being dissolved in the irritant vehicle. After 6 hours the inflammation is assessed by killing the animals and weighing the ears. Topical anti-inflammatory activity of a compound is generally considered to be shown when a significant (5% level) reduction in ear weight is seen compared to non-drug treated control.

[4] = read-out: Mean Energy Expenditure (%)
[5] = Rattus norvegicus, read-out: Heart Rate
[6] = Rattus norvegicus, read-out: Heart Tension
[7] = 30 μg added to perfusate, perfused rat heart, read-out: Heart Rate
[8] = 30 μg added to perfusate, perfused rat heart, read-out: Heart Tension

CNCCOc1ccc(CC(C)NCC(O)c2cccc(C(F)(F)F)c2)cc1 (stereo not shown) [Example 1a, N-[2-(4-(2-Methylaminoethoxy)phenyl)-1-methylethyll-2-hydroxy-2-(3-trifluoromethylphenyl)ethanaminedihydrochloride]
g Lipid/Mouse Treated (genetically obese mice; 13.1 mg/kg p.o. daily for 28 days, Control 19.13): 12.54 g Lipid/Mouse
response vs control in vivo at 2.61 mg/kg (Female CFLP mice [1]; [4]): 120%
response vs control in vivo at 2.61 mg/kg (Female CFLP mice [1]; read-out: Mean Food Intake (%)): 94%

Br.Br.CNCCOc1ccc(CC(C)NCC(O)c2cccc(Br)c2)cc1 (stereo not shown) [Example 8, N-[2-(4-(2-Methylaminoethoxy)phenyl)-1-methylethyl]-2-hydroxy-2-(3-bromophenyl)ethanamine dihydrobromide]
Dose-Ratio [2]: 4.8
Emax at 0.01 mg (Rat hearts; [5]): 73%
Emax at 0.01 mg (Rat hearts; [6]): 20%
g Lipid/Mouse Treated (genetically obese mice; 15.8 mg/kg p.o. daily for 28 days, Control 19.89): 17.91 g Lipid/Mouse
Reduction in area under Blood glucose curve (%) (Female CFLP mice [3]; 1 μ moles/kg po): 51%
response vs control in vivo at 31.6 mg/kg (Female CFLP mice [1]; [4]): 135%
response vs control in vivo at 31.6 mg/kg (Female CFLP mice [1]; read-out: Mean Food Intake (%)): 97%

CNCCOc1ccc(CC(C)NCC(O)c2cccc(Cl)c2F)cc1.Cl.Cl (stereo not shown) [Example 11, N-[2-(4-(2-Methylaminoethoxy)phenyl)-1-methylethyl]-2-hydroxy-2-(2-fluoro-3-chlorophenyl)ethanamine dihydrochloride]
Emax at 0.01 mg (Rat hearts; [5]): 45%
Emax at 0.01 mg (Rat hearts; [6]): 60%
Reduction in area under Blood glucose curve (%) (Female CFLP mice [3]; 1 μ moles/kg po): 64%
response vs control in vivo at 25.3 mg/kg (Female CFLP mice [1]; [4]): 148%
response vs control in vivo at 25.3 mg/kg (Female CFLP mice [1]; read-out: Mean Food Intake (%)): 79%

CC(Cc1ccc(OCCN2CCCCC2)cc1)NCC(O)c1cccc(Cl)c1 (stereo not shown) [Example 14, N-[2-(4-(2-(1-Piperidine)ethoxy)phenyl)-1-methylethyl]-2-hydroxy-2-(3-chlorophenyl)ethanamine dihydrochloride]
Emax at 0.03 mg (Rat hearts; [7]): 0%
Emax at 0.03 mg (Rat hearts; [8]): 0%
g Lipid/Mouse Treated (genetically obese mice; 3.61 mg/kg p.o. daily for 28 days, Control 22.90): 19.83 g Lipid/Mouse
Reduction in area under Blood glucose curve (%) (Female CFLP mice [3]; 1 μ moles/kg po): 68%
response vs control in vivo at 23.9 mg/kg (Female CFLP mice [1]; [4]): 141%
response vs control in vivo at 23.9 mg/kg (Female CFLP mice [1]; read-out: Mean Food Intake (%)): 111%

CC(Cc1ccc(OCCNCc2ccccc2)cc1)NCC(O)c1cccc(C(F)(F)F)c1 (stereo not shown) [Example 18, N-[2-(4-(2-Benzylaminoethoxy)phenyl)-1-methylethyl]-2-hydroxy-2-(3-trifluoromethylphenyl)ethanamine]
Emax at 0.03 mg (Rat hearts; [7]): 12%
Emax at 0.03 mg (Rat hearts; [8]): 7%
Reduction in area under Blood glucose curve (%) (Female CFLP mice [3]; 2.5 μ moles/kg po): 50%
response vs control in vivo at 26.3 mg/kg (Female CFLP mice [1]; [4]): 131%
response vs control in vivo at 26.3 mg/kg (Female CFLP mice [1]; read-out: Mean Food Intake (%)): 80%

CCOC(=O)NCCOc1ccc(CC(C)NCC(O)c2cccc(C(F)(F)F)c2)cc1 (stereo not shown) [Example 20, N-[2-(4-(2-Ethoxycarbonylaminoethoxy)phenyl)-1-methylethyl]-2-hydroxy-2-(3-trifluoromethylphenyl)-ethanamine]
Emax at 0.03 mg (Rat hearts; [7]): 12%
Emax at 0.03 mg (Rat hearts; [8]): 0%
Reduction in area under Blood glucose curve (%) (Female CFLP mice [3]; 2.5 μ moles/kg po): 36%
response vs control in vivo at 25.3 mg/kg (Female CFLP mice [1]; [4]): 115%
response vs control in vivo at 25.3 mg/kg (Female CFLP mice [1]; read-out: Mean Food Intake (%)): 86%

CC(=O)NCCOc1ccc(CC(C)NCC(O)c2cccc(C(F)(F)F)c2)cc1 (stereo not shown) [Example 21, N-[2-(4-(2-Acetylaminoethoxy)phenyl)-1-methylethyl]-2-hydroxy-2-(3-trifluoromethylphenyl)ethanamine]
Emax at 0.03 mg (Rat hearts; [7]): 22%
Emax at 0.03 mg (Rat hearts; [8]): 24%
Reduction in area under Blood glucose curve (%) (Female CFLP mice [3]; 2.5 μ moles/kg po): 44%
response vs control in vivo at 23.6 mg/kg (Female CFLP mice [1]; [4]): 119%
response vs control in vivo at 23.6 mg/kg (Female CFLP mice [1]; read-out: Mean Food Intake (%)): 102%

CNCCOc1ccc(CC(C)NCC(O)c2cccc(Cl)c2)cc1.Cl.Cl (stereo not shown) [Example 22, N-[2-(4-(2-Methylaminoethoxy)phenyl)-1-methylethyl]-2-hydroxy-2-(3-chlorophenyl)ethanamine dihydrochloride]
Emax at 0.03 mg (Rat hearts; [5]): 57%
Emax at 0.03 mg (Rat hearts; [6]): 22%
Reduction in area under Blood glucose curve (%) (Female CFLP mice [3]; 1 μ moles/kg po): 43%
response vs control in vivo at 24.3 mg/kg (Female CFLP mice [1]; [4]): 124%
response vs control in vivo at 24.3 mg/kg (Female CFLP mice [1]; read-out: Mean Food Intake (%)): 84%

CNCCOc1ccc(C[C@@H](C)NC[C@H](O)c2cccc(C(F)(F)F)c2)cc1 [Example 24, N-[2-(4-(2-Methylaminoethoxy)phenyl)-1-methylethyl]-2-hydroxy-2-(3-trifluoromethylphenyl)ethanamine dihydrochloride (RR,SS) diastereoisomer]
Dose-Ratio [2]: 5.9
Reduction in area under Blood glucose curve (%) (Female CFLP mice [3]; 1 μ moles/kg po): 47%
Activity (rat ear): Active
response vs control in vivo at 6.6 mg/kg (Female CFLP mice [1]; [4]): 139%
response vs control in vivo at 6.6 mg/kg (Female CFLP mice [1]; read-out: Mean Food Intake (%)): 102%
